Reference: patent US20180163178A1, “AUF1 ENCODING COMPOSITIONS FOR MUSCLE CELL UPTAKE, SATELLITE CELL POPULATIONS, AND SATELLITE CELL MEDIATED MUSCLE GENERATION” (priority 2015, published 2018)

Assays:
[1] = tested on: PAX7+ satellite cell population
Experimental: (§1) Male and female mice 4-6 months of age were injected by 20 uL 1.2% BaCl2 in saline directly to the left TA muscle. Right TA muscle was left uninjured. Mice were monitored and sacrificed by protocol for 1-30 days post-injection. 2 mice per genotype per time point were studied.
Male and female mice 4-6 months of age had their TA removed and preserved in OCT. Skeletal muscle samples were prepared as previously described (Bernet et al., “p38 MAPK Signaling Underlies a Cell-autonomous Loss of Stem Cell Self-renewal in Skeletal Muscle of Aged Mice,” Nature Medicine 20:265-271 (2014), which is hereby incorporated by reference in its entirety). Samples were post-fixed in 4% paraformaldehyde and blocked in 3% BSA in TBS-T. Primary antibodies were incubated at 4° C. overnight. Alexa Fluor donkey 488, 555, and 647 secondary antibodies were used at 1:500 and incubated for 1 hour at room temperature. Slides were sealed with Vectashield with DAPI. The following antibody dilutions were used: rat antibody to Laminin (Sigma, L0663, 1:250), mouse antibody to PAX7 (Santa Cruz Biotechnology, SC-81648, 1:500), goat antibody to hnRNPD (Santa Cruz Biotechnology, SC-22368, 1:250).
Images were acquired using a Zeiss LSM 700 confocal microscope, primarily with the 20× lens. Images were processed and scored using ImageJ64. If needed, color balance was adjusted linearly for the entire image and all images in experimental set. All images were quantified based on field of view. At least 5 images per experimental animal and at least 2 animals per genotype were used for all experiments.
(§2) KO male and female mice 4 months of age were given an IP injection with 25 mg/kg SB-3CT (Sigma-Aldrich) every 24 h, starting 24 h prior to BaCl2 injury with MMPSense injection. Three mice per treatment were analyzed, then means and standard deviations calculated. Data were analyzed with an unpaired t-test.

MMP9 = MMP9 (Mus musculus, UniProt P41245); settings: auf1 KO mice
Chain of MMP9 (P41245 108-730): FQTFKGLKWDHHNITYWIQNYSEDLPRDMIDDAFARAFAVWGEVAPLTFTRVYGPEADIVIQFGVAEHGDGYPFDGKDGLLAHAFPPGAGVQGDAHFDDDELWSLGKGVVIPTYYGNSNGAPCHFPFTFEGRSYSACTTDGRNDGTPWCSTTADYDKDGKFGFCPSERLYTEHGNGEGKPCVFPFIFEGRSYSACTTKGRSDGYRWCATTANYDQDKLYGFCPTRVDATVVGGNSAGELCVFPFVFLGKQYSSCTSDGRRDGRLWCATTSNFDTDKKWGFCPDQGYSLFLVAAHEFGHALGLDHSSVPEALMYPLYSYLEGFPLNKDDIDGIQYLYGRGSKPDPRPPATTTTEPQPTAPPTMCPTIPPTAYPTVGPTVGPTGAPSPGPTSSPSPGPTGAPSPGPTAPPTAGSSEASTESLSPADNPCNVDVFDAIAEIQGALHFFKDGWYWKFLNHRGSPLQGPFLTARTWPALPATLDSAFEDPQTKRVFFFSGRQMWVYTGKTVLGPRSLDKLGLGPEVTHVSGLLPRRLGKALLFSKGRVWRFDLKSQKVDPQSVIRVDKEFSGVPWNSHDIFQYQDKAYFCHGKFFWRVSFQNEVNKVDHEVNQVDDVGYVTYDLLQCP
Experimental: as §1
Data were analyzed with an unpaired t-test.
as §2

With `O=S(=O)(CC1CS1)c1ccc(Oc2ccccc2)cc1` (centres unmarked) [SB-3CT] the “expansion of the PAX7+ satellite cell population (FIG. 11C)” value ([1]; SB-3CT treated auf1 KO mice, 7 days post-injury) was “significant increased expansion”, the “increase in the PAX7+ satellite cell population (FIG. 11D)” value ([1]; auf1 KO mice, SB-3CT treatment, 7 days post-injury, vs untreated KO) was ~4 fold and the muscle wound repair ([1]; injured auf1 KO mice, SB-3CT treatment) was “restoration of muscle wound repair”. For the same molecule, the “muscle fiber morphology (FIG. 11C)” value ([1]; injured, SB-3CT treated auf1 KO mice) was “near-normal muscle fibers were evident”, the “Laminin expression (FIG. 11C)” value ([1]; injured, SB-3CT treated auf1 KO mice, 7 days post-injury) was “strongly increased” and the “reduction in MMP9 activity (bioluminescence analysis, FIG. 11B)” value (MMP9; SB-3CT IP daily from 24 h prior to BaCl2 TA injury, injured TA 24 h post-injury, vs untreated KO) was > 5 fold. The “MMP9 activity at the site of IP injection (FIG. 11A)” value (MMP9; SB-3CT IP daily, IVIS imaging) was “near complete extinction of MMP9 activity” and the “MMP9 activity in the injured TA muscle (FIG. 11A)” value (MMP9; SB-3CT IP daily, IVIS imaging 24 h after injury) was “significantly reduced MMP9 activity”.
